Common to all, as to assay type: cell-based, Staphylococcus aureus
Test [1] concerns Staphylococcus strains including MRSA. Briefly: antibacterial activity screening, results stated in words. To be noted: Example 3 SAR. From the text: However, the N-alkylthio substituent is required, since reduction to the N—H analogue completely destroys the biological activity. […]
(§1) Of particular interest is the ability of these compounds to retain their effectiveness against penicillin-resistant strains of Staphylococcus aureus, a dangerous hospital-borne pathogen which is becoming difficult to treat with conventional antibiotic therapy. The lactams were screened for antibacterial activity by disk diffusion on agar plates, and the resulting zones of bacterial growth inhibition measured (see Table 3; each lactam is designated by Figure number).
With the lactam of FIG. 6A serving as a lead structure, other C4-unsaturated derivatives (FIGS. 6B-6E) and C4-saturated analogues (FIGS. 6F-6H), were examined all of which also have activity against Staphylococcus strains including MRSA.
(§2) Scheme I summarizes the synthesis of ester compounds 4. 4-Carboxy benzaldehyde (1) is coupled with the appropriate alcohol using DCC/DMAP, followed by reaction with p-anisidine, to give imines 2. Staudinger coupling of methoxyacetyl chloride with imine 2 gives N-aryl protected β-lactam 3. N-Dearylation of β-lactam 3 with ceric ammonium nitrate and methylthiolation with N-(methylthio)phthalimide affords N-methylthio β-lactams 4. These compounds are tested for antibacterial activity by the Kirby-Bauer method of disc diffusion on agar plates. [drawing 7]

The test system of a further test is MRSA USF652. Put plainly: Kirby-Bauer agar disk diffusion. Details: Kirby-Bauer Disc Diffusion Test Results: unit not given here. The note with it: for Zones of Inhibition: Table 4, 20 μg disk loading; for Kirby-Bauer Disc Diffusion Test Results: Table 5, beta-lactamase producing strain. The procedure:
(§3) In this study, a selection of N-methylthio-substituted β-lactams are examined for antimicrobial activity by the Kirby-Bauer disk diffusion method on agar plates. A variety of common Gram-positive and Gram-negative bacteria are tested, including clinical isolates of methicillin-resistant Staphylococcus aureus (MRSA).
(§4) Compound susceptibility measurements are obtained from agar disk diffusion experiments using 6-mm air-dried disks impregnated with 20 μg of the test compound. The values correspond to the average diameters in mm (triplicate experiments) for the zone of growth inhibition observed after 24 h. Staphylococcus aureus (ATCC 25923) and β-lactamase-producing strains of methicillin-resistant Staphylococcus aureus (labeled as MRSA USF652-659) are obtained from Lakeland Regional Medical Center, Lakeland, Fla. Staphylococcus epidermidis, Staphylococcus simulans, Staphylococcus simulans, and Microcossus luteus are clinical isolates from University of South Florida Medical Clinic. Nieserria gonnorhoeae (β-lactamase positive) is obtained from the Tampa Branch State Laboratory. PenG is penicillin G (potassium salt). Table 1 provides the zones of growth inhibition that are observed after 24 hours using the lactams of FIGS. 1A-1I (designated A-I, respectively).
as §1
(§5) Table 3: Growth inhibition zones obtained from agar disk diffusion experiments using 6-mm air-dried disks impregnated with 20 μg of the test compound. The values correspond to the average diameters in mm for the zone of growth inhibition observed after 24 hours. Staphylococcus aureus and β-lactamase-producing strains of methicillin-resistant Staphylococcus aureus (labeled MRSA USF652-659) are obtained from a clinical testing laboratory at Lakeland Regional Medical Center, Lakeland, Fla.
(§6) Those compounds were tested for bioactivity using the Kirby-Bauer test on agar plates.
(§7) Biological activity is enhanced against β-lactamase producing strains of methicillin-resistant Staphylococcus aureus (MRSA). With the lactam shown in FIG. 11A serving as a lead structure, a series of other C-4 substituted derivatives (FIGS. 11B-11I) were investigated herein. Table 5 lists microbiological data for β-lactams from Kirby-Bauer Disc Diffusion Test Results (with each lactam identified by Figure number).
as §2

Another test concerns MRSA USF653. Briefly: Kirby-Bauer agar disk diffusion. Set-up: Kirby-Bauer Disc Diffusion Test Results: unit not given here. The note with it: for Zones of Inhibition: Table 4, 20 μg disk loading; for Kirby-Bauer Disc Diffusion Test Results: Table 5, beta-lactamase producing strain. The procedure:
as §3, §4, §1, §5, §6, §7, §2

Another test relates to MRSA USF654. Briefly: Kirby-Bauer agar disk diffusion. The note with it: for Zones of Inhibition: Table 4, 20 μg disk loading; for Kirby-Bauer Disc Diffusion Test Results: Table 5, beta-lactamase producing strain. Set-up: Kirby-Bauer Disc Diffusion Test Results: unit not given here. On the procedure:
as §3, §4, §1, §5, §6, §7, §2
In general terms: A growth-free zone around the sample is the usual read-out of agar diffusion tests.

The subject of the next test is MRSA USF655. Briefly: Kirby-Bauer agar disk diffusion. Details: Kirby-Bauer Disc Diffusion Test Results: unit not given here. The note with it: for Zones of Inhibition: Table 4, 20 μg disk loading; for Kirby-Bauer Disc Diffusion Test Results: Table 5. The procedure: as §3, §4, §1, §5, §6, §7, §2
The next test concerns MRSA USF656. Briefly: Kirby-Bauer agar disk diffusion. To be noted: for Zones of Inhibition: Table 4, 20 μg disk loading; for Kirby-Bauer Disc Diffusion Test Results: Table 5, beta-lactamase producing strain. Details: Kirby-Bauer Disc Diffusion Test Results: unit not given here. The procedure: as §3, §4, §1, §5, §6, §7, §2
The next test has as its system MRSA USF657. Briefly: Kirby-Bauer agar disk diffusion. To be noted: for Zones of Inhibition: Table 4, 20 μg disk loading; for Kirby-Bauer Disc Diffusion Test Results: Table 5, beta-lactamase producing strain. Set-up: Kirby-Bauer Disc Diffusion Test Results: unit not given here. On the procedure:
as §3, §4, §1, §5, §6, §7, §2

The subject of the next test is MRSA USF658. Briefly: Kirby-Bauer agar disk diffusion. Details: Kirby-Bauer Disc Diffusion Test Results: unit not given here. The note with it: for Zones of Inhibition: Table 4, 20 μg disk loading; for Kirby-Bauer Disc Diffusion Test Results: Table 5, beta-lactamase producing strain. On the procedure: as §3, §4, §1, §5, §6, §7, §2
The next test has as its system MRSA USF659. Briefly: Kirby-Bauer agar disk diffusion. Details: Kirby-Bauer Disc Diffusion Test Results: unit not given here. The note with it: for Zones of Inhibition: Table 4, 20 μg disk loading; for Kirby-Bauer Disc Diffusion Test Results: Table 5, beta-lactamase producing strain. The procedure:
as §3, §4, §1, §5, §6, §7, §2

A further test concerns Staph aureus 525. Briefly: Kirby-Bauer agar disk diffusion. The note with it: for Zones of Inhibition: Table 4, 20 μg disk loading; for Kirby-Bauer Disc Diffusion Test Results: Table 5.

From patent US6946458B2, “N-thiolated beta-lactams: novel antibacterial agents for methicillin-resistant Staphylococcus aureus” (University of South Florida, priority 1999, dated 2005) come the findings set out here.

For `COC1C(=O)N(SC)C1C(C#Cc1ccccc1)OC(C)=O` (mixture of isomers) [FIG. 6I], the “antibacterial activity, in words” value in [1] is reported as “devoid of activity”.
As to `CCC(C)SN1C(=O)C(OC)C1c1ccccc1Cl` (mixture of isomers) [sec-Butyl], the “Zones of Inhibition” value in the test on MRSA USF652 came to 38 mm; in the test with MRSA USF653, 34 mm; in the test with MRSA USF654, 35 mm; in the test with MRSA USF655, 34 mm; in the test on MRSA USF656, 36 mm; in the test with MRSA USF657, 33 mm. Further, the “Zones of Inhibition” value turned out to be 35 mm in the test on MRSA USF658, 33 mm in the test with MRSA USF659 and 32 mm with Staph aureus 525.
As for `CCCCSN1C(=O)C(OC)C1c1ccccc1Cl` (racemic) [Butylthio], the “Zones of Inhibition” value worked out at 26 mm with MRSA USF652; 27 mm in the test on MRSA USF653; 23 mm with MRSA USF654; 23 mm in the test on MRSA USF655; 25 mm in the test on MRSA USF656; 26 mm in the test on MRSA USF657. Further, the figures for the “Zones of Inhibition” value in the test with MRSA USF658, in the test on MRSA USF659 and with Staph aureus 525 were 20 mm, 24 mm and 25 mm, respectively.
For `COC1C(=O)N(SC2CCCCC2)C1c1ccccc1Cl` (racemic) [Cyclo-hexyl], the “Zones of Inhibition” value stood at 25 mm in the test on MRSA USF652; 20 mm with MRSA USF653; 21 mm with MRSA USF654; 22 mm with MRSA USF655; 23 mm in the test with MRSA USF656; 23 mm in the test with MRSA USF657. Besides, the results for the “Zones of Inhibition” value with MRSA USF658, with MRSA USF659 and in the test on Staph aureus 525 were 26 mm, 22 mm and 21 mm, respectively.
For `CCSN1C(=O)C(OC)C1c1ccccc1Cl` (racemic) [Ethylthio], the “Zones of Inhibition” value is 33 mm in the test on MRSA USF652; 33 mm in the test with MRSA USF653; 27 mm in the test with MRSA USF654; 28 mm in the test on MRSA USF655; 29 mm in the test with MRSA USF656; 29 mm with MRSA USF657. Further, the “Zones of Inhibition” value in the test on MRSA USF658 is listed as 30 mm; with MRSA USF659 it was 30 mm; with Staph aureus 525, 26 mm.
Regarding `COC1C(=O)N(SC)C1C#Cc1ccccc1` (racemic) [FIG. 11A], the “Kirby-Bauer Disc Diffusion Test Results” value turned out to be 29 in the test with MRSA USF652; 29 with MRSA USF653; 27 in the test with MRSA USF654; 27 with MRSA USF655; 30 with MRSA USF656; 28 in the test with MRSA USF657. Further, the “Kirby-Bauer Disc Diffusion Test Results” value in the test on MRSA USF658 is recorded as 27; with MRSA USF659, 24; in the test with Staph aureus 525, 27.
As for `COC1C(=O)N(SC)C1c1ccccc1` (racemic) [FIG. 11B], the “Kirby-Bauer Disc Diffusion Test Results” value in the test on MRSA USF652 was found to be 30; in the test on MRSA USF653, 30; in the test on MRSA USF654 it was 26; in the test with MRSA USF655, 26; with MRSA USF656 it was 28; with MRSA USF657, 28. Besides, the “Kirby-Bauer Disc Diffusion Test Results” value is given as 27 in the test with MRSA USF658, 24 in the test on MRSA USF659 and 25 with Staph aureus 525.
Take `COC1C(=O)N(SC)C1c1cccc([N+](=O)[O-])c1` (racemic) [FIG. 11C]: the “Kirby-Bauer Disc Diffusion Test Results” value with MRSA USF652 was 17; with MRSA USF653 it was 22; in the test on MRSA USF654, 16; in the test on MRSA USF655 it was 14; with MRSA USF656 it was 18; in the test with MRSA USF657, 18. In addition, the “Kirby-Bauer Disc Diffusion Test Results” value with MRSA USF658 was 17; in the test on MRSA USF659 it was 11; in the test with Staph aureus 525, 15.
Turning to `COC1C(=O)N(SC)C1c1ccc(C#N)cc1` (racemic) [FIG. 11D], the “Kirby-Bauer Disc Diffusion Test Results” value in the test on MRSA USF652 is given as 14; in the test with MRSA USF653 it was 16; in the test on MRSA USF654, 0; with MRSA USF655, 12; in the test on MRSA USF656, 13; in the test on MRSA USF657, 10. For the same molecule, the “Kirby-Bauer Disc Diffusion Test Results” value in the test with MRSA USF658 amounted to 12; with MRSA USF659 it was 12; with Staph aureus 525, 14.
On to `COC1C(=O)N(SC)C1c1cccs1` (racemic) [FIG. 11E], for which the “Kirby-Bauer Disc Diffusion Test Results” value with MRSA USF652 is 28; with MRSA USF653, 28; with MRSA USF654 it was 27; with MRSA USF655 it was 29; with MRSA USF656, 28; with MRSA USF657, 26. Besides, the “Kirby-Bauer Disc Diffusion Test Results” value came to 26 in the test with MRSA USF658, 24 in the test with MRSA USF659 and 27 in the test on Staph aureus 525.
With `COC1C(=O)N(SC)C1c1cccc(Cl)c1` (racemic) [FIG. 11G], the “Kirby-Bauer Disc Diffusion Test Results” value worked out at 26 in the test with MRSA USF652; 28 with MRSA USF653; 21 with MRSA USF654; 23 in the test on MRSA USF655; 26 in the test on MRSA USF656; 25 in the test on MRSA USF657. Also, the figures for the “Kirby-Bauer Disc Diffusion Test Results” value in the test on MRSA USF658, with MRSA USF659 and in the test on Staph aureus 525 were 22, 15 and 24, respectively.
`COC1C(=O)N(SC)C1c1ccc(Cl)cc1` (racemic) [FIG. 11H]: the “Kirby-Bauer Disc Diffusion Test Results” value in the test with MRSA USF652 was 24; in the test on MRSA USF653, 28; in the test with MRSA USF654 it was 23; with MRSA USF655, 23; with MRSA USF656, 22; in the test on MRSA USF657 it was 22. Also, the “Kirby-Bauer Disc Diffusion Test Results” value with MRSA USF658 came to 20; in the test on MRSA USF659, 18; in the test with Staph aureus 525 it was 24.
Consider `COC1C(=O)N(SC)C1c1c(Cl)cccc1Cl` (racemic) [FIG. 11I], for which the “Kirby-Bauer Disc Diffusion Test Results” value is recorded as 24 in the test with MRSA USF652; 26 with MRSA USF653; 21 in the test with MRSA USF654; 20 in the test on MRSA USF655; 22 with MRSA USF656; 20 in the test on MRSA USF657. Further, the “Kirby-Bauer Disc Diffusion Test Results” value with MRSA USF658 is listed as 20; in the test on MRSA USF659, 17; in the test with Staph aureus 525, 24.
Turning to `COC1C(=O)N(SC)C1c1ccccc1Cl` (racemic) [Methyl-thio], the “Zones of Inhibition” value with MRSA USF652 stood at 30 mm; in the test with MRSA USF653 it was 29 mm; with MRSA USF654, 26 mm; in the test with MRSA USF655 it was 26 mm; in the test on MRSA USF656, 28 mm; in the test on MRSA USF657, 27 mm. In addition, the figures for the “Zones of Inhibition” value in the test on MRSA USF658, in the test with MRSA USF659 and in the test on Staph aureus 525 were 26 mm, 23 mm and 26 mm, respectively.
